This note sets out measurements from patent US11530199B2, “Analogs for the treatment of disease” (Insilico Medicine IP Limited, priority 2021, dated 2022).

This data set in a line: Metabolic stability in human liver microsomes.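 Further: NADPH-supplemented incubation in 100 mM potassium phosphate buffer, compound loss sampled at 0, 5, 10, 20, 30 and 60 min by LC-MS/MS, first-order kinetics.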 The note with it: LM Clint; human liver microsomes 0.5 mg protein/mL, test compound 1 μM, 37° C., up to 60 min. The class given is in vitro ADME. A general note: Liver microsomes are vesicles of endoplasmic reticulum, rich in cytochrome P450 enzymes.

Each structure is given as a SMILES string.

Description: Test Compound and Control Working Solution Preparation: Working solution: 5 μL of compound and control stock solution (10 mM in dimethyl sulfoxide (DMSO)) were diluted with 495 µL of acetonitrile (ACN) (intermediate solution concentration: 100 μM, 99% ACN).
Preparation Procedure: The appropriate amount of NADPH powder was weighed and diluted into a 10 mM MgCl2 solution (working solution concentration: 10 unit/mL; final concentration in reaction system: 1 unit/mL).
Preparation Procedure: The appropriate concentrations of microsome working solutions were prepared in 100 mM potassium phosphate buffer.
Stop Solution Preparation: Cold (4° C.) acetonitrile (ACN) containing 200 ng/mL tolbutamide and 200 ng/mL labetalol as internal standards (IS) was used as the stop solution.
Dilute liver microsomes to 0.56 mg/mL in 100 mM phosphate buffer.
Transfer 445 μL microsome working solutions (0.56 mg/mL) into pre-warmed ‘Incubation’ plates T60 and NCF60, Then pre-incubate ‘Incubation’ plates T60 and NCF60 for 10 min at 37° C. with constant shaking. Transfer 54 μL liver microsomes to blank plate, then add 6 μL NAPDH cofactor to blank plate, and then add 180 μL quenching solution to blank plate.
2.5.4 Add 5 μL compound working solution (100 μM) into ‘incubation’ plates (T60 and NCF60) containing microsomes and mix 3 times thoroughly.
For the NCF60 plate, add 50 μL of buffer and mix 3 times thoroughly. Start timing; plate will be incubated at 37° C. for 60 min while shaking.
In ‘Quenching’ plate T0, add 180 μL quenching solution and 6 μL NAPDH cofactor. Ensure the plate is chilled to prevent evaporation.
For the T60 plate, mix 3 times thoroughly, and immediately remove 54 μL mixture for the 0-min time point to ‘Quenching’ plate. Then add 44 μL NAPDH cofactor to incubation plate (T60). Start timing; plate will be incubated at 37° C. for 60 min while shaking.
At 5, 10, 20, 30, and 60 min, add 180 μL quenching solution to ‘Quenching’ plates, mix once, and serially transfer 60 μL sample from T60 plate per time point to ‘Quenching’ plates.
For NCF60: mix once, and transfer 60 μL sample from the NCF60 incubation to ‘Quenching’ plate containing quenching solution at the 60-min time point.
All sampling plates are shaken for 10 min, then centrifuged at 4000 rpm for 20 minutes at 4° C.
Transfer 80 μL supernatant into 240 μL HPLC water, and mix by plate shaker for 10 min.
Each bioanalysis plate was sealed and shaken for 10 minutes prior to LC-MS/MS analysis.
The equation of first order kinetics was used to calculate T1/2 and Intrinsic clearance (CLint mic) in (μL/min/mg).

For the compound `CC(C)n1cnc(-c2ccc(F)cc2)c1-c1nc(C(=O)Nc2ccc(N3CCN(C(N)=O)CC3)cc2)c[nH]1` [Compound 99, N-(4-(4-carbamoylpiperazin-1-yl)phenyl)-5′-(4-fluorophenyl)-3′-isopropyl-1H,3′H-[2,4′-biimidazole]-4-carboxamide], the “Human Liver Microsome (μM/min/mg)” value is on record as “++ (10-100 μM/min/mg as ++)”. Consider `CC(C)n1cnc(-c2ccc(F)cc2)c1-c1nc(C(=O)Nc2ccc(CCCCC(=O)O)cc2)c[nH]1` [Compound 132, 5-(4-(5′-(4-fluorophenyl)-3′-isopropyl-1H,3′H-[2,4′-biimidazole]-4-carboxamido)phenyl)pentanoic acid], for which the “Human Liver Microsome (μM/min/mg)” value is “+++ (1-10 μM/min/mg as +++)”. For `CN1CCN(c2ccc(NC(=O)c3c[nH]c(-c4c(-c5ccc(F)cc5)ncn4C4CCC(O)CC4)n3)cc2)CC1` (stereo not shown) [Compound 172], the “Human Liver Microsome (μM/min/mg)” value is “+++ (1-10 μM/min/mg as +++)”. Under `CN1CCN(c2ccc(NC(=O)c3c[nH]c(-c4c(-c5ccc(F)cc5)ncn4CC(C)(C)C)n3)cc2)CC1` [Compound 135, 5′-(4-fluorophenyl)-N-(4-(4-methylpiperazin-1-yl)phenyl)-3′-neopentyl-1H,3′H-[2,4′-biimidazole]-4-carboxamide] stands “+ (>100 μM/min/mg as)”.

With `CC(C)n1cnc(-c2ccc(F)cc2)c1-c1nc(C(=O)Nc2ccc(CCC(=O)O)cc2)c[nH]1` [Compound 102, 3-(4-(5′-(4-fluorophenyl)-3′-isopropyl-1H,3′H-[2,4′-biimidazole]-4-carboxamido)phenyl)propanoic acid], the “Human Liver Microsome (μM/min/mg)” value is recorded as “+++ (1-10 μM/min/mg as +++)”.

With `CN1CCN(c2ccc(NC(=O)c3c[nH]c(-c4c(-c5ccc(F)cc5)ncn4CC(F)(F)F)n3)cc2)CC1` [Compound 120, 5′-(4-fluorophenyl)-N-(4-(4-methylpiperazin-1-yl)phenyl)-3′-(2,2,2-trifluoroethyl)-1H,3′H-[2,4′-biimidazole]-4-carboxamide], the “Human Liver Microsome (μM/min/mg)” value is listed as “++ (10-100 μM/min/mg as ++)”. `CC(C)n1cnc(-c2ccc(F)cc2)c1-c1nc(C(=O)Nc2ccc(CCO)cc2)c[nH]1` [Compound 111, 5′-(4-fluorophenyl)-N-(4-(2-hydroxyethyl)phenyl)-3′-isopropyl-1H,3′H-[2,4′-biimidazole]-4-carboxamide]: the “Human Liver Microsome (μM/min/mg)” value is recorded as “++ (10-100 μM/min/mg as ++)”.

As to `CC(C)n1cnc(-c2ccc(F)cc2)c1-c1nc(C(=O)Nc2ccc(N(CCO)CCO)cc2)c[nH]1` [Compound 116, N-(4-(bis(2-hydroxyethyl)amino)phenyl)-5′-(4-fluorophenyl)-3′-isopropyl-1H,3′H-[2,4′-biimidazole]-4-carboxamide], the “Human Liver Microsome (μM/min/mg)” value is recorded as “+++ (1-10 μM/min/mg as +++)”. Take `CC(C)n1cnc(-c2ccc(F)cc2)c1-c1nc(C(=O)Nc2ccc(N3CCN(S(N)(=O)=O)CC3)cc2)c[nH]1` [Compound 97, 5′-(4-fluorophenyl)-3′-isopropyl-N-(4-(4-sulfamoylpiperazin-1-yl)phenyl)-1H,3′H-[2,4′-biimidazole]-4-carboxamide]: the “Human Liver Microsome (μM/min/mg)” value is on record as “+ (>100 μM/min/mg as)”. Next, `CC(C)n1cnc(-c2ccc(F)cc2)c1-c1cccc(C(=O)Nc2ccc(N3CCN(C)CC3)cc2)n1` [Compound 127]: “+ (>100 μM/min/mg as)”. Next, `CC(C)n1cnc(-c2ccc(F)c(F)c2)c1-c1nc(C(=O)Nc2ccc(N3CCN(C)CC3)cc2)c[nH]1` [Compound 156, 5′-(3,4-difluorophenyl)-3′-isopropyl-N-(4-(4-methylpiperazin-1-yl)phenyl)-1H,3′H-[2,4′-biimidazole]-4-carboxamide]: “++ (10-100 μM/min/mg as ++)”; `CC(C)n1cnc(-c2ccc(C(F)(F)F)cc2)c1-c1nc(C(=O)Nc2ccc(N3CCN(C)CC3)cc2)c[nH]1` [Compound 142, 3′-isopropyl-N-(4-(4-methylpiperazin-1-yl)phenyl)-5′-(4-(trifluoromethyl)phenyl)-1H,3′H-[2,4′-biimidazole]-4-carboxamide]: “+ (>100 μM/min/mg as)”. Under `CN1CCN(c2ccc(NC(=O)c3c[nH]c(-c4c(-c5ccc(F)cc5)ncn4C)n3)cc2)CC1` [Compound 119, 5′-(4-fluorophenyl)-3′-methyl-N-(4-(4-methylpiperazin-1-yl)phenyl)-1H,3′H-[2,4′-biimidazole]-4-carboxamide] stands “++ (10-100 μM/min/mg as ++)”; under `C[N+]1([O-])CCN(c2ccc(NC(=O)c3c[nH]c(-c4c(-c5ccc(F)cc5)ncn4CC(F)(F)F)n3)cc2)CC1` [Compound 166, 4-(4-(5′-(4-fluorophenyl)-3′-(2,2,2-trifluoroethyl)-1H,3′H-[2,4′-biimidazole]-4-carboxamido)phenyl)-1-methylpiperazine 1-oxide], “+++ (1-10 μM/min/mg as +++)”. `CC(C)n1cnc(-c2ccc(F)c(F)c2)c1-c1nc(C(=O)Nc2ccc(N3CCN(CCO)CC3)cc2)c[nH]1` [Compound 146, 5′-(3,4-difluorophenyl)-N-(4-(4-(2-hydroxyethyl)piperazin-1-yl)phenyl)-3′-isopropyl-1H,3′H-[2,4′-biimidazole]-4-carboxamide]: the “Human Liver Microsome (μM/min/mg)” value was “++ (10-100 μM/min/mg as ++)”. Take `CC(C)n1cnc(-c2ccc(F)cc2)c1-c1nc(C(=O)Nc2ccc(N3CCNCC3)cc2)c[nH]1` [Compound 181, 5′-(4-fluorophenyl)-3′-isopropyl-N-(4-(piperazin-1-yl)phenyl)-1H,3′H-[2,4′-biimidazole]-4-carboxamide]: the “Human Liver Microsome (μM/min/mg)” value is “++ (10-100 μM/min/mg as ++)”. Next, `O=C(Nc1ccc(N2CCNCC2)cc1)c1c[nH]c(-c2c(-c3ccc(F)cc3)ncn2CC(F)(F)F)n1` [Compound 167, 5′-(4-fluorophenyl)-N-(4-(piperazin-1-yl)phenyl)-3′-(2,2,2-trifluoroethyl)-1H,3′H-[2,4′-biimidazole]-4-carboxamide]: “++ (10-100 μM/min/mg as ++)”; `CC(C)n1cnc(-c2ccc(Cl)cc2)c1-c1nc(C(=O)Nc2ccc(N3CCN(CCO)CC3)cc2)c[nH]1` [Compound 139, 5′-(4-chlorophenyl)-N-(4-(4-(2-hydroxyethyl)piperazin-1-yl)phenyl)-3′-isopropyl-1H,3′H-[2,4′-biimidazole]-4-carboxamide]: “++ (10-100 μM/min/mg as ++)”. As for `CC(C)n1cnc(-c2ccc(F)cc2)c1-c1ccc(C(=O)Nc2ccc(N3CCN(C)CC3)cc2)o1` [Compound 121, 5-(4-(4-fluorophenyl)-1-isopropyl-1H-imidazol-5-yl)-N-(4-(4-methylpiperazin-1-yl)phenyl)furan-2-carboxamide], the “Human Liver Microsome (μM/min/mg)” value is on record as “+ (>100 μM/min/mg as)”. Under `O=C(Nc1ccc(N2CCN(CCO)CC2)cc1)c1c[nH]c(-c2c(-c3ccc(F)cc3)ncn2[C@H]2CC[C@H](O)CC2)n1` [Compound 158, 5′-(4-fluorophenyl)-3′-((1r,4r)-4-hydroxycyclohexyl)-N-(4-(4-(2-hydroxyethyl)piperazin-1-yl)phenyl)-1H,3′H-[2,4′-biimidazole]-4-carboxamide] stands “+++ (1-10 μM/min/mg as +++)”; under `CC(C)n1cnc(-c2ccc(F)cc2)c1-c1nc(C(=O)Nc2ccc(N3CCN(CCO)CC3)cc2)c[nH]1` [Compound 117, 5′-(4-fluorophenyl)-N-(4-(4-(2-hydroxyethyl)piperazin-1-yl)phenyl)-3′-isopropyl-1H,3′H-[2,4′-biimidazole]-4-carboxamide], “++ (10-100 μM/min/mg as ++)”; under `CC(C)n1cnc(-c2ccc(F)cc2)c1-c1ccc(C(=O)Nc2ccc(CCO)cc2)o1` [Compound 126, 5-(4-(4-fluorophenyl)-1-isopropyl-1H-imidazol-5-yl)-N-(4-(2-hydroxyethyl)phenyl)furan-2-carboxamide], “+ (>100 μM/min/mg as)”. Next, `CN1CCN(c2ccc(NC(=O)c3c[nH]c(-c4c(-c5ccc(F)cc5)ncn4C(F)F)n3)cc2)CC1` [Compound 130, 3′-(difluoromethyl)-5′-(4-fluorophenyl)-N-(4-(4-methylpiperazin-1-yl)phenyl)-1H,3′H-[2,4′-biimidazole]-4-carboxamide]: “++ (10-100 μM/min/mg as ++)”; `CC(C)n1cnc(-c2ccc(F)cc2)c1-c1cccc(C(=O)Nc2ccc(N3CCN(CCO)CC3)cc2)n1` [Compound 128]: “+ (>100 μM/min/mg as)”. Next, `CC(C)n1cnc(-c2ccc(F)cc2)c1-c1cccc(C(=O)Nc2ccc(CCC(=O)O)cc2)n1` [Compound 131]: “+++ (1-10 μM/min/mg as +++)”. With `CN1CCN(c2ccc(NC(=O)c3c[nH]c(-c4c(-c5ccc(F)cc5)ncn4[C@H]4CC[C@H](O)CC4)n3)cc2)CC1` [Compound 159, 5′-(4-fluorophenyl)-3′-((1r,4r)-4-hydroxycyclohexyl)-N-(4-(4-methylpiperazin-1-yl)phenyl)-1H,3′H-[2,4′-biimidazole]-4-carboxamide], the “Human Liver Microsome (μM/min/mg)” value is listed as “++ (10-100 μM/min/mg as ++)”.

With `CC(C)n1cnc(-c2ccc(F)cc2)c1-c1nc(C(=O)Nc2ccc(C(=O)O)cc2)c[nH]1` [Compound 113, 4-(5′-(4-fluorophenyl)-3′-isopropyl-1H,3′H-[2,4′-biimidazole]-4-carboxamido)benzoic acid], the “Human Liver Microsome (μM/min/mg)” value is reported as “+++ (1-10 μM/min/mg as +++)”. Next, `CC(C)n1cnc(-c2ccc(Cl)cc2)c1-c1nc(C(=O)Nc2ccc(CCC(=O)O)cc2)c[nH]1` [Compound 137, 3-(4-(5′-(4-chlorophenyl)-3′-isopropyl-1H,3′H-[2,4′-biimidazole]-4-carboxamido)phenyl)propanoic acid]: “+++ (1-10 μM/min/mg as +++)”.
